Measurements: patent US20190240297A1, “TREATMENT OF INFLAMMATORY BOWEL DISEASE” (UNIVERSITÉ LAVAL, priority 2016, published 2019)

Columns and labels:
[1] = system: DSS-induced colitis; experiment: DSS-induced acute colitis, disease activity index (DAI) after intrarectal injection; assay type: in vivo, mouse
Experimental: (§1) All mice were treated or not (control mice) with 3% (w/v) DSS (molecular weight: 42 kDa) added to the drinking water for 7 days. Disease activity index (DAI) was evaluated daily by scoring percent of weight loss, intestinal bleeding (no blood, presence of blood), and stool consistency (normal stool, loose stool, or diarrhea) as previously described (Berberat P, 2005). For intrarectal injection mice were anesthetized and stool that may be present in distal colon was removed with pressure by fingertips to the posterior end of the animal. A 5F infant feeding tube catheter was inserted 4 cm (measured from the midway point between the 2 catheter side ports) into the colon. At this point, 100 μL of P2Y6 antagonist (MRS 2578 CAS number 711019-86-2, 10 μM), apyrase (4 Units/mice) or their vehicles DMSO or PBS respectively was administered slowly. Following the injection of the solution, animals were positioned head-down for 90 sec to avoid loss of the injected solution. Mice were euthanized 8 hr after the last intrarectal injection, tissue and plasma were isolated for experimental outcomes.

[2] = system: DSS-induced colitis; experiment: In vivo intestinal permeability assay (FITC-dextran flux from intestine to plasma) in DSS-treated mice; parameters: species or system mouse
Experimental: as §1, with “For” for “All mice were treated or not (control mice) with 3% (w/v) DSS (molecular weight: 42 kDa) added to the drinking water for 7 days. Disease activity index (DAI) was evaluated daily by scoring percent of weight loss, intestinal bleeding (no blood, presence of blood), and stool consistency (normal stool, loose stool, or diarrhea) as previously described (Berberat P, 2005). For”
Intestinal permeability was assessed with fluorescein-labeled dextran (FITC-dextran) as described previously with some modification (Ashleigh Hansen, 2013). All mice were administrated by oral gavage with FITC-dextran (60 mg/[…] of mouse) 4 h after the intrarectal injection of MRS 2578, apyrase or vehicle (DMSO or PBS). Another 4 hours later, mice were euthanized and whole blood was obtained by cardiac puncture. Plasma was isolated and the movement of FITC-flux from colonic lumen into the plasma was measured by fluorometry at 488 nm. Data are expressed as total quantity of dextran-FITC in 100 μl of plasma.

[3] = system: IEC; experiment: KC secretion by DSS-treated IEC (ELISA of basolateral supernatant); assay type: cell-based, mouse; settings: WT and Entpd8-/- IEC, DSS 3% 24 hours; 10 μM added 6 hours after DSS for last 18 hours (FIG. 14B)
Text: (§2) Human colon pieces were recuperated and washed several times with D-PBS containing Fetal Bovine Serum (FBS), antibiotics, antifungal and gentamycin until the solution is clear. Epithelial unit containing stem cells (crypts) were isolated from human samples (as prepared above) or from the intestine of 10-12 weeks old mice by dissection and dissociated with collagenase type I (collagenase XI, DTT and dispase for human). Briefly, the longitudinal muscle layer from the colons were excised, washed with ice-cold Mg^2+ and Ca^2+ free Salt Solution (PBS) and then digested with 75 U/mL collagenase type I or collagenase XI. The digestion was stopped with Dulbecco's Modified Eagles Medium (DMEM/F12) containing 10% v/v foetal bovine serum (FBS). L-glutamine, Hepes. N-2 supplement, B-27 supplement and antibiotics. The digestion mixture was filtered with 70 μm filter and the effluent was centrifuged twice at 50×g for 5 min at 4° C. […]
In other experiments, murine IEC were grown on permeable supports, stimulated on the apical chamber with DSS 3% for 6 hours then the P2Y6 antagonist MRS 2578 (10 μM) was added for the following 18 hours. The supernatant from basolateral chamber was collected and KC secretion was evaluated by Elisa. […]

[4] = system: IEC monolayers; experiment: In vitro intestinal permeability assay (FITC-dextran) on DSS-treated IEC monolayers; assay type: cell-based, mouse; settings: WT and Entpd8-/- IEC, DSS 3% 24 hours; 10 μM added 6 hours after DSS for last 18 hours (FIG. 14A)
Text: as §2, with “Hepes.” for “Hepes. N-2 supplement, B-27 supplement and antibiotics. The digestion mixture was filtered with 70 μm filter and the effluent was centrifuged twice at 50×g for 5 min at 4° C.”
In other experiments, murine IEC were grown on permeable supports, stimulated on the apical chamber with DSS 3% for 6 hours then the P2Y6 antagonist MRS 2578 (10 μM) was added for the following 18 hours. The supernatant from basolateral chamber was collected and KC secretion was evaluated by Elisa.
Intestinal permeability was assessed with fluorescein-labeled dextran (FITC-dextran) as described previously with some modification (Ashleigh Hansen 2013). […] 4 hours later, samples were taken from the bottom chambers and fluorescence intensity in the samples was measured. Data were expressed as total quantity of dextran-FITC in supernatant.

[5] = molecular target: T1, P2Y6 receptor (Mus musculus, UniProt Q9ERK9); experiment: UDP stimulation of murine differentiated IEC, KC expression by qPCR; assay type: cell-based; settings: 100 μM for 5 hours (FIG. 13A)
T1 construct: endogenous in cells; host or cells: primary differentiated intestinal epithelial cells from colon crypts of WT and Entpd8-/- mice
T1 sequence (Q9ERK9 whole entry): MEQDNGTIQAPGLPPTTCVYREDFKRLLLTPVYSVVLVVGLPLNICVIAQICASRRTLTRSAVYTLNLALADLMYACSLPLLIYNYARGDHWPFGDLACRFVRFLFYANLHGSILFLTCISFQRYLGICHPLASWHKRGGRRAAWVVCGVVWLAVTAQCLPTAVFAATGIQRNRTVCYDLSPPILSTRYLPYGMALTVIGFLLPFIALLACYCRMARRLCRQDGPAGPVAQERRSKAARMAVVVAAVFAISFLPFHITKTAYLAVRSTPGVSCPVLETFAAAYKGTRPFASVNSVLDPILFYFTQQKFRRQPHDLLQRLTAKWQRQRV
Text: as §2
(§3) Murine and human differentiated IEC were grown on plates and stimulated with UDP (100 μM) for 5 hours then the expression of KC (for mouse) and CXCL8 (for human) were evaluated by qPCR.
(§4) Genomic DNA was extracted from the tail of WT and Entpd8^−/− mice using Direct PCR Lysis Reagent to perform PCR using specific primers for NTPDase8 gene and neomycin as mentioned above. […] Primer sequences for cytokine analysed were purchased from Qiagen.

[6] = molecular target: T2, P2Y6 receptor (Homo sapiens, UniProt Q15077); experiment: UDP stimulation of human differentiated IEC, CXCL8 expression by qPCR; assay type: cell-based; settings: 100 μM for 5 hours, 1 patient (FIG. 13B)
T2 construct: endogenous in cells; host or cells: primary differentiated intestinal epithelial cells from human colon crypts (1 patient)
T2 sequence (Q15077 whole entry): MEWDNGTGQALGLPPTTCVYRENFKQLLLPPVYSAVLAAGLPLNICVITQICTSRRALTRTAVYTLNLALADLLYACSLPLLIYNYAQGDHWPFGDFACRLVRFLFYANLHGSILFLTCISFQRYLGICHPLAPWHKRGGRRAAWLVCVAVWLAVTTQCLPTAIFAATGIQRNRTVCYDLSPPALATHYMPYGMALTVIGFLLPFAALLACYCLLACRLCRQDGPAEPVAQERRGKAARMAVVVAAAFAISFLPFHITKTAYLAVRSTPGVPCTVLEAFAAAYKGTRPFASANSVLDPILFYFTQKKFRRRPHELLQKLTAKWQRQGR
Text: as §2, §3, §4

Molecule: apyrase
- Protection from colitis as determined by DAI ([1]; WT mice, DSS, 4 U/mice intrarectally daily day 2 to day 7, vs PBS (FIG. 11A)): fully protected
- Disease activity index (DAI) / inflammation ([1]; WT mice, DSS, 4 U/mice intrarectally in late phase, day 5 to day 7, vs PBS (FIG. 11C)): reduced inflammation
- Protection from colitis as determined by permeability measurements ([2]; WT mice, 4 U/mice intrarectally daily day 2 to day 7, vs PBS (FIG. 11B)): fully protected

Molecule: S=C=Nc1cccc(NC(=S)NCCCCNC(=S)Nc2cccc(N=C=S)c2)c1 [MRS 2578]
- Disease activity index (DAI) / inflammation ([1]; Entpd8-/- mice, 3% DSS 7 days, 10 μM intrarectally daily day 2 to day 7, vs DSS alone (FIG. 10A)): reduced inflammation and the DAI
- Disease activity index (DAI) / inflammation ([1]; WT mice, 3% DSS 7 days, 10 μM intrarectally daily day 2 to day 7, vs DSS alone (FIG. 10C)): reduced inflammation and the DAI
- KC (chemokine) secretion [3]: decreasing epithelial permeability and chemokines secretion
- Intestinal permeability, FITC-dextran flux from intestine to plasma ([2]; Entpd8-/- and WT mice, day 7, 10 μM intrarectally day 2 to day 7 (FIG. 10B, D)): significantly ameliorated the permeability
- Epithelial permeability (FITC-dextran in basolateral chamber) [4]: decreasing epithelial permeability

Molecule: O=c1ccn([C@@H]2O[C@H](COP(=O)(O)OP(=O)(O)O)[C@@H](O)[C@H]2O)c(=O)[nH]1 [UDP]
- KC expression (mRNA) [5]: significant increase
- CXCL8 expression (mRNA) [6]: significant increase
